Like-named read-outs stand apart in the source and are kept apart here.
How the values were obtained:
[1] = molecular target: T1, human α1G T-type channels (Homo sapiens, UniProt O43497); assay: T-type calcium channel block, whole cell patch clamp in HEK cells (α1G); type: cell-based
T1 construct: expressed in transfected cells; host or cells: HEK 293

[2] = molecular target: T2, human α1H T-type channels (Homo sapiens, UniProt O95180); assay: T-type calcium channel block, whole cell patch clamp in HEK cells (α1H); type: cell-based
T2 construct: expressed in transfected cells; host or cells: HEK 293

[3] = HEK cells, patch clamp, mainly non-inactivated protocol, values above 10 μM shown as 10 μM, below 0.30 μM shown as 0.30 μM, read-out: T-type Calcium Channel Block α1G IC50
[4] = HEK cells, patch clamp, mainly non-inactivated protocol, values above 10 μM shown as 10 μM, read-out: T-type Calcium Channel Block α1H IC50

T1 sequence (O43497 whole entry): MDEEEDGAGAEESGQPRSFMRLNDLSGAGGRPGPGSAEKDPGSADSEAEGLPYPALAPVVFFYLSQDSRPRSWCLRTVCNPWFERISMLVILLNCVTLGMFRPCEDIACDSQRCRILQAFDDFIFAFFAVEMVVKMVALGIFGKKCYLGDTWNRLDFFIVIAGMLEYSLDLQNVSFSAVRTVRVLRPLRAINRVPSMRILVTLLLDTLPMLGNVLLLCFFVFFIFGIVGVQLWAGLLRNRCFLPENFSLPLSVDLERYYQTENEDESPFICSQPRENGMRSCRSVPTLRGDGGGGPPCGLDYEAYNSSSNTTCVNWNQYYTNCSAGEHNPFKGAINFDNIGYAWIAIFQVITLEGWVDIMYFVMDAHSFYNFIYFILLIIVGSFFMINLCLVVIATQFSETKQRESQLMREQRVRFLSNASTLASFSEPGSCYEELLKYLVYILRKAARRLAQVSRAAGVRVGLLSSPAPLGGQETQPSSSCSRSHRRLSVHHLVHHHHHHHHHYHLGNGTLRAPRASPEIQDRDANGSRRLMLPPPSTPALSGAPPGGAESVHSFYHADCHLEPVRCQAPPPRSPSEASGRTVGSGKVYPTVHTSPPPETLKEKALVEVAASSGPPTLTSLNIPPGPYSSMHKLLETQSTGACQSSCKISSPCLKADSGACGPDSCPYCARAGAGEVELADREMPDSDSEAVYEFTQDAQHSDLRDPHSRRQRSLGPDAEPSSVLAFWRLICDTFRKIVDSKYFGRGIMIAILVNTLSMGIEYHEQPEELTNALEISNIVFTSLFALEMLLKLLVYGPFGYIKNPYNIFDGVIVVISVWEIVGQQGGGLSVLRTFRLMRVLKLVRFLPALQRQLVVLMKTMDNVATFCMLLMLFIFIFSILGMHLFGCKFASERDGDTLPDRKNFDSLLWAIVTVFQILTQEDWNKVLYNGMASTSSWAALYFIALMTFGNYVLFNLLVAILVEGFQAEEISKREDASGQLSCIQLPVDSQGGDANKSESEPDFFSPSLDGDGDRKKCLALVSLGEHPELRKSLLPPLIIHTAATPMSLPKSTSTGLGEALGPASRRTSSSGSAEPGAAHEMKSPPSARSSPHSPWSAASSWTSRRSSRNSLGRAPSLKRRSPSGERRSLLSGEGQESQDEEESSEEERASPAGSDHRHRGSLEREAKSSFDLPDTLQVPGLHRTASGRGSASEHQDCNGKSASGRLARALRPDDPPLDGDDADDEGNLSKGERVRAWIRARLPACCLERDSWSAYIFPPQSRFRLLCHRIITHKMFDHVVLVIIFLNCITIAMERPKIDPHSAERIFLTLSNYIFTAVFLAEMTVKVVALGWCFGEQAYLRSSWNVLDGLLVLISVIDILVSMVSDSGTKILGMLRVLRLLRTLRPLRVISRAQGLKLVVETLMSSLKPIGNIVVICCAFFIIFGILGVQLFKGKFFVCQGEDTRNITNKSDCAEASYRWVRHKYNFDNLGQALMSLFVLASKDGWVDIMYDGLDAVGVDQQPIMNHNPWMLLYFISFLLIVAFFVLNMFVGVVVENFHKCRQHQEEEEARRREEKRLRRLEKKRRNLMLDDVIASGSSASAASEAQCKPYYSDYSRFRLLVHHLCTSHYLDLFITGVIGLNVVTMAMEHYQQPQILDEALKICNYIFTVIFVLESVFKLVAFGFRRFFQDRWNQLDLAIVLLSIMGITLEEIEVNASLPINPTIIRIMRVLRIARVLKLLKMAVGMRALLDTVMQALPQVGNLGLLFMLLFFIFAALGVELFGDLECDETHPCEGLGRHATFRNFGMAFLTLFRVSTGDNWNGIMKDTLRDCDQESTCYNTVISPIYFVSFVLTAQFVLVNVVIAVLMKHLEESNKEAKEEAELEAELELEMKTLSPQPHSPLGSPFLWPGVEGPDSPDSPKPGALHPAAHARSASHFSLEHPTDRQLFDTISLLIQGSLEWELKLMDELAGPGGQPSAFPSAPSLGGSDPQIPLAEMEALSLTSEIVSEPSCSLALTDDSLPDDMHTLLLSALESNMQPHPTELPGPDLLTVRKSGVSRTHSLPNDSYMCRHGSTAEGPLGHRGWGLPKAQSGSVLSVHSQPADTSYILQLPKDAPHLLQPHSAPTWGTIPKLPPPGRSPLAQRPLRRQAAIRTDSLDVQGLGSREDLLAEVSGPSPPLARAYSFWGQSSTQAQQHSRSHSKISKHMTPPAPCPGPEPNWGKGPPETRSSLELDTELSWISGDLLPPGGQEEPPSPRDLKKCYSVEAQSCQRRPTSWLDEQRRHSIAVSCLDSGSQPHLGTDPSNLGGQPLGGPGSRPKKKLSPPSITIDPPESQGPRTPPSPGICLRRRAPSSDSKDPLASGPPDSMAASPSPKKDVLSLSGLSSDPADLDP
T2 sequence (O95180 whole entry): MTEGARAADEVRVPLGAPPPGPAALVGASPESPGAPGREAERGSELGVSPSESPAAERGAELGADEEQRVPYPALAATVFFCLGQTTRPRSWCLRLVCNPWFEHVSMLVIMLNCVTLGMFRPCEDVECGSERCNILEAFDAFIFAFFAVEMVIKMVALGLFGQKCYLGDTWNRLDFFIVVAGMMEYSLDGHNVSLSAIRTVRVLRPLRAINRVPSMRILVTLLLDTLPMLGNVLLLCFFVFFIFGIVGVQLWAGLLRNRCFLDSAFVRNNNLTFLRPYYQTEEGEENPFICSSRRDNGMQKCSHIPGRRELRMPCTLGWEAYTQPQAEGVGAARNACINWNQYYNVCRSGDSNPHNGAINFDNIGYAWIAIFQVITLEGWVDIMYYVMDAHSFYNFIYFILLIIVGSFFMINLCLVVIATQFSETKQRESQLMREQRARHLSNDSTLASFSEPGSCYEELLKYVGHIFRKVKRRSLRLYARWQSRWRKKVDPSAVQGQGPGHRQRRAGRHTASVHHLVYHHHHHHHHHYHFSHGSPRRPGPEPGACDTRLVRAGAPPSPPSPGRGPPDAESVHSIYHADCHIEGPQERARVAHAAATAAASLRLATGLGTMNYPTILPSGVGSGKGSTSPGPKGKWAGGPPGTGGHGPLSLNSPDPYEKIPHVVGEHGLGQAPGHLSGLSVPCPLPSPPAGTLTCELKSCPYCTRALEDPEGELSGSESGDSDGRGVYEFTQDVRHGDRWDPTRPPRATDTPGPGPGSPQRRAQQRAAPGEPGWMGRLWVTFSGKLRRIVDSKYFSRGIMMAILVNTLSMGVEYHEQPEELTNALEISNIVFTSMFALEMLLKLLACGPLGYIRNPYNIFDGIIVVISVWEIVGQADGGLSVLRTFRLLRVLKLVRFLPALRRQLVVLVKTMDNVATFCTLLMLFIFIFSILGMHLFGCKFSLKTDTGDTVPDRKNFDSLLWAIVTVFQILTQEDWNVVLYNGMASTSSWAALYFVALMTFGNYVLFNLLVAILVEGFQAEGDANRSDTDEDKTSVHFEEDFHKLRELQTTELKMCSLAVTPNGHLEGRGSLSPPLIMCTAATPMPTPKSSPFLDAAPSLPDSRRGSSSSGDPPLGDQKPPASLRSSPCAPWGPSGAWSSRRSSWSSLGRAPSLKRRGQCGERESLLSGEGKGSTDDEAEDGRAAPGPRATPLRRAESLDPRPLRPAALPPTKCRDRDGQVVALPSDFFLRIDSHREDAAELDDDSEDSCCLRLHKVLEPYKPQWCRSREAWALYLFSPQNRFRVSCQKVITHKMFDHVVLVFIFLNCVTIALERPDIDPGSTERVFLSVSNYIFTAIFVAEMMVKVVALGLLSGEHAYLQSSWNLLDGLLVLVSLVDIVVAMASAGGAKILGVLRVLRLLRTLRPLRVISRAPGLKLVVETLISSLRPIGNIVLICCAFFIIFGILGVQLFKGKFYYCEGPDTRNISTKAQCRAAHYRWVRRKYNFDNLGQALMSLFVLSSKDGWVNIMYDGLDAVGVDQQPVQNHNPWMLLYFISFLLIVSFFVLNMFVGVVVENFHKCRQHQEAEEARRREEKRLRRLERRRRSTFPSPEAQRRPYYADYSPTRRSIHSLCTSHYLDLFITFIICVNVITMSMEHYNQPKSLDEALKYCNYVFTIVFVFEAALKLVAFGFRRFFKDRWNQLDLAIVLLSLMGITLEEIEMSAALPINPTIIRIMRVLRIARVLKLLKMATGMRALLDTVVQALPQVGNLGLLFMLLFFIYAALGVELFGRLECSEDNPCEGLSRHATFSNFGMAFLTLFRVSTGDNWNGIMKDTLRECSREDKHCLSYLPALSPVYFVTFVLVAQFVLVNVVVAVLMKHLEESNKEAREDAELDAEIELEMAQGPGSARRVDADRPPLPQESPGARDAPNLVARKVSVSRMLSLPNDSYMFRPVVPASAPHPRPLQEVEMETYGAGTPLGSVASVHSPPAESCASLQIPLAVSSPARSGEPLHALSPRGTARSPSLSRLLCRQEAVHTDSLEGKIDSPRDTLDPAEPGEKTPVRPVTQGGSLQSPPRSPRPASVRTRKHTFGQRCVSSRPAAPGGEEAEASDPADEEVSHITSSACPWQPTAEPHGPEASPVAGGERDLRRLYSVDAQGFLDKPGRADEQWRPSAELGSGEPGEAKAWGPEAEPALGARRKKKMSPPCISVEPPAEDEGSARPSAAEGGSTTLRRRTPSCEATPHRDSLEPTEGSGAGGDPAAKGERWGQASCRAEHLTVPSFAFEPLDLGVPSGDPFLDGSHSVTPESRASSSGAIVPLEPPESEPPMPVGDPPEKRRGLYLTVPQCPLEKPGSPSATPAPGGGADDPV

SMILES	IC50 [1, 3]	IC50 [2, 4]	IC50 [1]	IC50 [2]
CC(C)(C)N/C(CN1CCC(CNC(=O)c2cc(F)cc(C(F)(F)F)c2)CC1)=N\C#N [Compound 510, (Z)-N-((1-(2-(tert-butylamino)-2-(cyanoimino)ethyl)piperidin-4-yl)methyl)-3-fluoro-5-(trifluoromethyl) benzamide]	3970 nM	> 10000 nM	–	–
CN(CCN1CCC(CNC(=O)c2cc(F)cc(C(F)(F)F)c2)CC1)C(=O)C(C)(C)C [Compound 515, 3-fluoro-N-((1-(2-(N-methylpivalamido)ethyl)piperidin-4-yl)methyl)-5-(trifluoromethyl)benzamide]	310 nM	310 nM	–	–
CN(CCN1CCC(CNC(=O)c2cc(F)cc(C(F)(F)F)c2)CC1)C(=O)C1CCCC1 [Compound 516, 3-fluoro-N-((1-(2-(N-methylcyclopentanecarboxamido)ethyl)piperidin-4-yl)methyl)-5-(trifluoromethyl)benzamide]	460 nM	220 nM	–	–
CN(CCN1CCC(CNC(=O)c2cc(F)cc(C(F)(F)F)c2)CC1)C(=O)CCC(F)(F)F [Compound 517, 3-fluoro-N-((1-(2-(4,4,4-trifluoro-N-methylbutanamido)ethyl)piperidin-4-yl)methyl)-5-(trifluoromethyl)benzamide]	1100 nM	420 nM	–	–
CN(CCN1CCC(CNC(=O)c2cc(F)cc(C(F)(F)F)c2)CC1)C(=O)C1(C)CC1 [Compound 518, N-((1-(2-(N,1-dimethylcyclopropanecarboxamido)ethyl)piperidin-4-yl)methyl)-3-fluoro-5-(trifluoromethyl)benzamide]	1310 nM	810 nM	–	–
CN(CCN1CCC(CNC(=O)c2cc(F)cc(C(F)(F)F)c2)CC1)C(=O)NC(C)(C)C [Compound 523, N-((1-(2-(3-tert-butyl-1-methylureido)ethyl)piperidin-4-yl)methyl)-3-fluoro-5-(trifluoromethyl) benzamide]	5740 nM	910 nM	–	–
CCNC(=O)N(C)CCN1CCC(CNC(=O)c2cc(F)cc(C(F)(F)F)c2)CC1 [Compound 524, N-((1-(2-(3-ethyl-1-methylureido)ethyl)piperidin-4-yl)methyl)-3-fluoro-5-(trifluoromethyl) benzamide]	> 10000 nM	> 10000 nM	–	–
CN(CCN1CCC(CNC(=O)c2cc(F)cc(C(F)(F)F)c2)CC1)C(=O)NC1CCCCC1 [Compound 525, N-((1-(2-(3-cyclohexyl-1-methylureido)ethyl)piperidin-4-yl)methyl)-3-fluoro-5-(trifluoromethyl) benzamide]	2360 nM	770 nM	–	–
CCCNC(=O)N(C)CCN1CCC(CNC(=O)c2cc(F)cc(C(F)(F)F)c2)CC1 [Compound 526, 3-fluoro-N-((1-(2-(1-methyl-3-propylureido)ethyl)piperidin-4-yl)methyl)-5-(trifluoromethyl)benzamide]	> 10000 nM	3240 nM	–	–
O=C(CN1CCC(CNC(=O)c2cccc(Cl)c2)CC1)NN1CCCCC1 [Compound 527, 3-chloro-N-((1-(2-oxo-2-(piperidin-1-ylamino)ethyl)piperidin-4-yl)methyl)benzamide]	2650 nM	2840 nM	–	–
CC1(NC(=O)CN2CCC(CNC(=O)c3ccccc3)CC2)CCC1 [Compound 528, N-((1-(2-(1-methylcyclobutylamino)-2-oxoethyl)piperidin-4-yl)methyl) benzamide]	> 10000 nM	8540 nM	–	–
CC1(NC(=O)CN2CCC(CNC(=O)c3ccc(F)cc3)CC2)CCC1 [Compound 529, 4-fluoro-N-((1-(2-(1-methylcyclobutyl-amino)-2-oxoethyl)piperidin-4-yl)methyl)benzamide]	5440 nM	2510 nM	–	–
O=C(NC1CCCCC1)OCCN1CCC(CNC(=O)c2cc(F)cc(C(F)(F)F)c2)CC1 [Compound 530, 2-(4-((3-fluoro-5-(trifluoromethyl)benzamido)methyl)piperidin-1-yl)ethyl cyclohexylcarbamate]	590 nM	860 nM	–	–
Cc1cc(F)cc(C(=O)NCC2CCN(CC(=O)NC3CCCC3)CC2)c1 [Compound 533, N-((1-(2-(cyclopentylamino)-2-oxoethyl)piperidin-4-yl)methyl)-3-fluoro-5-methylbenzamide]	430 nM	400 nM	–	–
O=C(CN1CCC(CNC(=O)c2cccc(Cl)c2)CC1)NC1CCCC1 [Compound 534, 3-chloro-N-((1-(2-(cyclopentylamino)-2-oxoethyl)piperidin-4-yl)methyl) benzamide]	380 nM	420 nM	–	–
O=C(CN1CCC(CNC(=O)c2cccc(F)c2)CC1)NC1CCCC1 [Compound 535, N-((1-(2-(cyclopentylamino)-2-oxoethyl)piperidin-4-yl)methyl)-3-fluorobenzamide]	3620 nM	2140 nM	–	–
Cc1cc(C)cc(C(=O)NCC2CCN(CC(=O)N(C)C(C)(C)C)CC2)c1 [Compound 539, N-((1-(2-(tert-butyl(methyl)amino)-2-oxoethyl)piperidin-4-yl)methyl)-3,5-dimethylbenzamide]	1680 nM	510 nM	–	–
Cc1cc(F)cc(C(=O)NCC2CCN(CC(=O)N(C)C(C)(C)C)CC2)c1 [Compound 540, N-((1-(2-(tert-butyl(methyl)amino)-2-oxoethyl)piperidin-4-yl)methyl)-3-fluoro-5-methylbenzamide]	1400 nM	550 nM	–	–
CC(C(=O)NC1(C)CCCCC1)N1CCC(CNC(=O)c2cc(F)cc(Cl)c2)CC1 (stereo not shown) [Compound 550, 3-chloro-5-fluoro-N-((1-(1-(1-methylcyclohexylamino)-1-oxopropan-2-yl)piperidin-4-yl)methyl)benzamide]	< 300 nM	20 nM	–	–
COCC(C)(C)NC(=O)C(C)N1CCC(CNC(=O)c2cc(F)cc(Cl)c2)CC1 (stereo not shown) [Compound 551, 3-chloro-5-fluoro-N-((1-(1-(1-methoxy-2-methylpropan-2-ylamino)-1-oxopropan-2-yl)piperidin-4-yl)methyl)benzamide]	370 nM	140 nM	–	–
CC.CC(F)CNC(=O)CN1CCC(CNC(=O)c2cc(F)cc(Cl)c2)CC1 (stereo not shown) [Compound 553, 3-chloro-5-fluoro-N-((1-(2-(2-fluoropropylamino)-2-oxoethyl)piperidin-4-yl)methyl)benzamide compound with ethane (1:1)]	–	–	2520 nM	1730 nM

Continued, in another order:

IC50 [1, 3]	IC50 [2, 4]	SMILES	IC50 [1]	IC50 [2]
< 300 nM	190 nM	O=C(NCC1CCN(CCNC(=O)C2(C(F)(F)F)CCC2)CC1)c1cccc(Cl)c1 [Compound 512, 3-chloro-N-((1-(2-(1-(trifluoromethyl)cyclobutanecarboxamido)ethyl)piperidin-4-yl)methyl)benzamide]	–	–
< 300 nM	310 nM	CC(C)(C)NS(=O)(=O)CCN1CCC(CNC(=O)c2cc(F)cc(C(F)(F)F)c2)CC1 [Compound 514, N-((1-(2-(N-tert-butylsulfamoyl)ethyl)piperidin-4-yl)methyl)-3-fluoro-5-(trifluoromethyl)benzamide]	–	–
< 300 nM	240 nM	CC1CCC(C(=O)N(C)CCN2CCC(CNC(=O)c3cc(F)cc(C(F)(F)F)c3)CC2)CC1 (stereo not shown) [Compound 519, N-((1-(2-(N,4-dimethylcyclohexanecarboxamido)ethyl)piperidin-4-yl)methyl)-3-fluoro-5-(trifluoromethyl)benzamide]	–	–
< 300 nM	190 nM	CN(CCN1CCC(CNC(=O)c2cc(F)cc(C(F)(F)F)c2)CC1)C(=O)C1(C(F)(F)F)CC1 [Compound 520, 3-fluoro-N-((1-(2-(N-methyl-1-(trifluoromethyl)cyclopropanecarbox-amido)ethyl)piperidin-4-yl)methyl)-5-(trifluoromethyl)benzamide]	–	–
< 300 nM	140 nM	CN(CCN1CCC(CNC(=O)c2cc(F)cc(C(F)(F)F)c2)CC1)C(=O)C1(C(F)(F)F)CCCC1 [Compound 522, 3-fluoro-N-((1-(2-(N-methyl-1-(trifluoromethyl)cyclopentanecarbox-amido)ethyl)piperidin-4-yl)methyl)-5-(trifluoromethyl)benzamide]	–	–
< 300 nM	130 nM	COc1cc(F)cc(C(=O)NCC2CCN(CC(=O)NC3CCCC3)CC2)c1 [Compound 532, N-((1-(2-(cyclopentylamino)-2-oxoethyl)piperidin-4-yl)methyl)-3-fluoro-5-methoxybenzamide]	–	–
< 300 nM	120 nM	O=C(CN1CCC(CNC(=O)c2cccc(OC(F)(F)F)c2)CC1)NC1CCCC1 [Compound 536, N-((1-(2-(cyclopentylamino)-2-oxoethyl)piperidin-4-yl)methyl)-3-(trifluoromethoxy)benzamide]	–	–
< 300 nM	130 nM	CC(C(=O)NC(C)(C)C)N1CCC(CNC(=O)c2cc(F)cc(Cl)c2)CC1 (stereo not shown) [Compound 546, N-((1-(1-(tert-butylamino)-1-oxo-propan-2-yl)piperidin-4-yl)methyl)-3-chloro-5-fluorobenzamide]	–	–
< 300 nM	30 nM	CC(C(=O)NC(C)(C)C(F)(F)F)N1CCC(CNC(=O)c2cc(F)cc(Cl)c2)CC1 (stereo not shown) [Compound 547, 3-chloro-5-fluoro-N-((1-(1-oxo-1-(1,1,1-trifluoro-2-methylpropan-2-ylamino)propan-2-yl)piperidin-4-yl)methyl)benzamide]	–	–
< 300 nM	160 nM	CC(C(=O)N1CCC[C@H]1C(F)(F)F)N1CCC(CNC(=O)c2cc(F)cc(Cl)c2)CC1 (stereo partly drawn) [Compound 548, 3-chloro-5-fluoro-N-((1-(1-oxo-1-((S)-2-(trifluoromethyl)pyrrolidin-1-yl)propan-2-yl)piperidin-4-yl)methyl)benzamide]	–	–
< 300 nM	110 nM	CC(C(=O)NC1CCCC1)N1CCC(CNC(=O)c2cc(F)cc(Cl)c2)CC1 (stereo not shown) [Compound 549, 3-chloro-N-((1-(1-(cyclopentylamino)-1-oxopropan-2-yl)piperidin-4-yl)methyl)-5-fluorobenzamide]	–	–
